Source: ChEMBL document CHEMBL3988442, “University of Dundee, Small-Polar-MMV Screening Library” (2021)
Where “and” joins values, the source holds several entries; their conditions need not be identical. Identical values can stand only once.

Legend:
ClpP1P2 = ClpP1P2 (Mycobacterium tuberculosis (strain ATCC 25618 / H37Rv), UniProt P9WPC3+P9WPC5); assay: in vitro assay to detect presence of AMC directly proportional to the activity of ClpP1P2. GHDDI collaboration.; type: functional
Histidine--tRNA ligase = target: T1, Histidine--tRNA ligase (Leishmania infantum, UniProt A4I591); assay: Leishmania infantum Histidine tRNA synthetase (LdHisRS); type: functional
T1 sequence (A4I591 whole entry): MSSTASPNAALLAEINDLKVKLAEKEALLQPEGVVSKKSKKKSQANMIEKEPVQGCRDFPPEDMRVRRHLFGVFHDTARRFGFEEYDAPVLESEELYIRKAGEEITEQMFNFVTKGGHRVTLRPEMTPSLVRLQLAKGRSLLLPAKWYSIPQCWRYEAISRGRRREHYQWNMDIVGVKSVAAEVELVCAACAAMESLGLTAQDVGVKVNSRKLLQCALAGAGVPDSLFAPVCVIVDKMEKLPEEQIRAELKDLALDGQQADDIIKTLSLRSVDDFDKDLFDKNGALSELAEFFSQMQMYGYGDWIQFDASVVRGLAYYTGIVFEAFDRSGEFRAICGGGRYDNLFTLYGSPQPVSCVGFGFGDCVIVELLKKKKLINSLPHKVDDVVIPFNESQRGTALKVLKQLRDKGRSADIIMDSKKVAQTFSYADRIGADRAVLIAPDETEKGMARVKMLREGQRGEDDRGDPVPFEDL

Plasmodium falciparum = assay: Calibr Malaria Delayed Death Assay SOP; type: functional, organism-based; conditions: for IC50: Plasmodium falciparum
[1] = microbe, parasite or virus in culture; conditions: Mycobacterium tuberculosis, 72 h, read-out: pIC50 (converted)
[2] = microbe, parasite or virus in culture; conditions: Mycobacterium tuberculosis, 96 h, read-out: pIC50 (converted)
[3] = In vitro enzyme assay to detect hydrolysis of chlorophenol red-beta-D-[…] directly proportional to the number of Toxoplasma stably expressing beta-galactosidase; type: functional, organism-based, Toxoplasma gondii; conditions: Toxoplasma gondii
Schistosoma mansoni = assay: High throughput screening of compounds against Schistosoma mansoni motility; type: functional; parameters: dose or concentration left out as unconfirmed
Tryptophan--tRNA ligase = Tryptophan--tRNA ligase (Mycobacterium tuberculosis (strain ATCC 25618 / H37Rv), UniProt P9WFT3); assay: Biochemical assay for Mt-TrpRS; type: functional

| SMILES | IC50 (Histidine--tRNA ligase) | IC50 [1] [µM] | IC50 [2] [µM] | other results |
| --- | --- | --- | --- | --- |
| NC(=O)c1cnc2n1CCN(C(=O)c1ccc(Cn3cccc3)cc1)C2 | 22.7 µM and 17.3 µM |  |  | IC50 (ClpP1P2): > 100 µM |
| Clc1ccc(C2(CNC3=NCCN3)CCCCC2)cc1.I | 85 µM and 71.6 µM |  |  | pIC50 (Plasmodium falciparum): 6.717 and 7.044 |
| Cn1ccc2c(-c3cc(N4CCCCC4)ncn3)ccnc21 | 54.3 µM and 45.7 µM |  |  | IC50 (ClpP1P2): > 100 µM |
| Fc1cccc(N2C[C@H]3CCN(c4cccnc4)C[C@H]3C2)c1 | 40.6 µM and 35.1 µM | 45.2 | > 50.1 |  |
| Cc1cccnc1[C@H](C)Nc1nc(-c2cccnc2)nc2c1CNC2 | 36.4 µM and 22.4 µM |  |  | pIC50 (Plasmodium falciparum): 5.936; IC50 (Plasmodium falciparum): 0.951 µM |
| Cc1ccccc1N1CCN(c2nc(N(C)C)nc3c2CCNC3)CC1 | 55.3 µM and 91.3 µM | 26 | 27 |  |
| CC(=O)c1c(C)nn(CC(=O)Nc2ccc(Br)cc2)c1C | 6.08 µM and 7.13 µM | 8.6 |  | IC50 [3]: 7.32 µM |
| CCCc1nc(N(C)CCN2CCCCCC2)c2cnn(C)c2n1 | 41.4 µM and 39.5 µM | 28.3 | > 50.1 |  |
| Cc1nc(CN2CCc3nc(N4CCCC4)nc(NC(C)C)c3C2)cs1 | 14.7 µM and 12.1 µM | 41.6 | 25.4 |  |
| Cn1nc2c(cc1=O)CN(CCc1nc3ccccc3c(=O)[nH]1)CC2 | 67.7 µM and 54.2 µM |  |  | Percent Effect (Schistosoma mansoni): -34.74% |
| CCC1CN(CC(=O)NCCN2CCCCCC2)c2ccccc2S1 (centres undefined) | 39.1 µM and 39.7 µM | 44.8 | > 50.1 | pIC50 (Plasmodium falciparum): 5.947; IC50 (Plasmodium falciparum): 1.33 µM |
| Cc1nccn1CCCn1cncc1-c1ccc2c(c1)CCC(C)N2C (centres undefined) | 6.86 µM and 7.15 µM |  |  | IC50 (ClpP1P2): > 100 µM |
| CC(=O)Nc1ccc2nc(CN(C)Cc3snnc3C)ccc2c1 | 51.3 µM and 57.2 µM |  |  | IC50 (ClpP1P2): > 100 µM |
| O=C(c1cc(-c2ccco2)cs1)N1CCCC1 | > 100 µM and 53 µM | 8 | 33 |  |
| Brc1ccc(C2(CNCc3cc[nH]c3)CCOCC2)cc1 | 39.5 µM and 23.5 µM |  |  | pIC50 (Plasmodium falciparum): 6.139; IC50 (Plasmodium falciparum): 0.542 µM |
| CC(C)c1nc(CC(=O)Nc2nc(CN3CCCCCC3)cs2)cs1 | 39.8 µM and 33.5 µM | 23.2 | 21.2 |  |

| SMILES | IC50 (Histidine--tRNA ligase) | IC50 [1] [µM] | IC50 [2] [µM] | other results |
| --- | --- | --- | --- | --- |
| O=C(Nc1nccs1)c1csc(NC2CCCC2)n1 | 30.3 µM and 43.9 µM | 28.4 | 34.5 | IC50 [3]: 4.36 µM |
| c1ccc(Oc2ccc(OC34CCCN(CC3)C4)cc2)cc1 (centres undefined) | 39.4 µM and 40.6 µM | 23.7 | 40.7 |  |
| CCn1nc2c(cc1=O)CN(c1ncnc3sccc13)CC2 | 15.5 µM and 11.5 µM |  |  | IC50 [3]: 15 µM |
| Cn1cc(-c2c(C#N)c(N)nc3c2CCc2[nH]ccc2-3)cc1C#N | 28 µM and 21.7 µM |  |  | IC50 (ClpP1P2): > 100 µM |
| Clc1cc(CN2CCCN3CCCC3C2)c2ncccc2c1 (centres undefined) | 26.6 µM and 21.9 µM | 8.48 | 12.2 | pIC50 (Plasmodium falciparum): 5.897; IC50 (Plasmodium falciparum): 1.3 µM |
| NC(=O)C1=NC2=NS(=O)(=O)c3ccccc3N2N1Cc1ccc(Cl)cc1 | 62.9 µM and 43.4 µM | 45.4 | 26.4 |  |
| CSc1ccc(C(CN)N2CCc3sccc3C2)cc1 (centres undefined) | 73.8 µM and 73.2 µM | 27.4 | 24.1 |  |
| Cc1cc(NC(=O)CN2CCc3nn(C)c(=O)cc3C2)on1 | 71.2 µM and 54.8 µM |  |  | Percent Effect (Schistosoma mansoni): -32.24% |
| c1ccc2c(c1)CCN(c1nc(-c3ccncc3)nc3c1CCNC3)C2 | 9.69 µM and 11.1 µM | 49.7 | > 50.1 |  |
| COc1ccccc1C(=O)NC(c1ccccn1)[C@H]1CC[C@H](CN)CC1 (some centres undefined) | 9.74 µM and 9.59 µM |  |  | IC50 (Tryptophan--tRNA ligase): > 195 µM |
| N#CCCSc1sc2c(O)cc(O)nc2c1C#N | 18.7 µM and 27.5 µM |  |  | IC50 (Tryptophan--tRNA ligase): > 195 µM |
| COCC(O)CNc1cncc(Br)c1 (centres undefined) | > 100 µM |  |  | IC50 (Tryptophan--tRNA ligase): > 195 µM |
| CNc1cc2c(nn1)CCN(C(=O)c1coc(Br)c1)C2 | 51.3 µM and 66.4 µM |  |  | IC50 (ClpP1P2): > 100 µM |
| Cc1nc(CN2CCc3nc(NC(C)C)nc(C)c3C2)cs1 | 64.5 µM and 57.7 µM | > 50.1 | > 50.1 |  |
| Cc1c(CN2CCOCC2)c(O)n(CCO)c(=O)c1C#N | 35.3 µM and 35.6 µM |  |  | IC50 (Tryptophan--tRNA ligase): > 195 µM |
